# Measured values as given in patent US6723680B2, “Composition for regulation of gametophytic self-incompatibility, control method of gametophytic self-incompatibility of a plant and the plant self-pollinated by using said control method” (Istech Co., Ltd., priority 2000, dated 2004).
# Tested on: style-specific S1 RNase and S2 RNase
# Assay: Inhibition of style-specific RNase activity
# Format: biochemical, Fuji apple
# Conditions: 1 mM DEPC
# Method: The activity variation of the style-specific S1 RNase and S2 RNase purified in the Example 1-4 was investigated by adding chemicals acting as an inhibitor of protein degradation enzyme. RNase activity was measured by adding general stimulators of RNase activity, inhibitors of RNase activity commercially available and inhibitor candidate of a style-specific RNase of the present invention (Singh A. et al., Plant Physiology, 96:61-68, 1991). Among them, 1 mM EDTA, which is a representative inhibitor of protein degradation enzyme, 1 mM CaCl2, a stimulator of RNase activity, 1 mM DEPC (Sigma), a fatally poisonous inhibitor of RNase activity commercially available, and 1 mM ZnSO4 and 1 mM CuSO4, inhibitor candidates of the style-specific RNase was added respectively to mesure RNase activity.
smiles,measurement,value
CCOC(=O)OC(=O)OCC [DEPC],style-specific RNase activity,inhibited
